Measured values from article PMC6127852 (Journal of Enzyme Inhibition and Medicinal Chemistry, 2018).
Values after ≈ are worked out from the molar mass of the structure shown.

What was measured:
[1] = tested on: polyG-polyC (polyC-polyG) (RNA, polymer) G/C; assay: UV-Vis titration, Scatchard; conditions: PBS; for log Ks: I = 0.05 M (Table 1 says I = 0.015 M), cations not specified, I = 0.015 M (Methods: 0.05 M)
[2] = tested on: polyA-polyU (RNA, polymer) A/U; assay: UV-Vis titration, Scatchard; conditions: PBS; for log Ks: I = 0.05 M (Table 1 says I = 0.015 M), cations not specified, I = 0.015 M (Methods: 0.05 M)
[3] = tested on: polyA-polyU (RNA, polymer) A/U; assay: UV melting at 260 nm; conditions: PBS, I = 0.05 M, cations not specified, pH 7, r = 0.3 [compound]/[polynucleotide]
[4] = tested on: S. aureus MSSA; assay: Broth microdilution MIC, MSSA clinical strain; assay type: cell-based; conditions: Staphylococcus aureus
Description: (§1) The compounds were evaluated for their in vitro anti-bacterial activity against Gram-positive bacteria: S. aureus (ATCC 25923), MRSA, methicillin-sensitive S. aureus (MSSA), E. faecalis, vancomycin-resistant E. faecium (VREF), and Gram-negative bacteria: E. coli (ATCC 25925), P. aeruginosa (ATCC 27853), A. baumannii (ATCC 19606) and ESBL-producing K. pneumoniae (ATCC 27736). Standard broth microdilution method as recommended in guidelines of Clinical and Laboratory Standards Institute[61] ^, [65] ^, [66] was applied and the minimum inhibitory concentration (MIC) of compounds was tested. In short, testing was performed in U-bottomed 96-well sterile plastic microdilution trays (Falcon 3077, Becton Dickinson Labware, Franklin Lakes, NJ) in cation (Ca^2+ and Mg^2+) adjusted Mueller–Hinton broth medium (Becton Dickinson and Co., Cockeysville, MD). All testings were performed in triplicate.

[5] = tested on: E. faecalis ATCC 29212; assay: Broth microdilution MIC, E. faecalis ATCC 29212; assay type: cell-based; conditions: Enterococcus faecalis, ATCC29212; Table S2
Description: as §1
(§2) The in vitro anti-bacterial activity of 5-amidinobenzimidazoles 7a–7e, 8a–8e, and 9a–9e was tested against Gram-positive bacteria including S. aureus (ATCC 25923), Enterococcus faecalis (ATCC 29212), and Gram-negative bacteria including E. coli (ATCC 25925), K. pneumoniae (ATCC 700803), P. aeruginosa (ATCC 27853), and Acinetobacter baumannii (ATCC 19606).

[6] = tested on: S. aureus MRSA; assay: Broth microdilution MIC, MRSA clinical strain; assay type: cell-based; conditions: Staphylococcus aureus, antibiotic-resistant clinical strain
Description: as §1

[7] = tested on: S. aureus ATCC 25923; assay: Broth microdilution MIC, S. aureus ATCC 25923; assay type: cell-based; conditions: Staphylococcus aureus, ATCC25923; Table S2
Description: as §1, §2

[8] = tested on: E. faecium VRE; assay: Broth microdilution MIC, VRE clinical strain; assay type: cell-based; conditions: Enterococcus faecium
Description: as §1

[9] = tested on: A. baumannii ATCC 19606; assay: Broth microdilution MIC, A. baumannii ATCC 19606; assay type: cell-based; conditions: Acinetobacter baumannii, ATCC19606; Table S2
Description: as §1, §2

[10] = tested on: E. coli ATCC 25925; assay: Broth microdilution MIC, E. coli ATCC 25925; assay type: cell-based; conditions: Escherichia coli, ATCC25925; Table S2
Description: as §1, §2

[11] = tested on: K. pneumonia ATCC 700803; assay: Broth microdilution MIC, K. pneumoniae ATCC 700803; assay type: cell-based; conditions: Klebsiella pneumoniae, ATCC700803; Table S2
Description: as §1, §2

[12] = tested on: P. aeruginosa ATCC 27853; assay: Broth microdilution MIC, P. aeruginosa ATCC 27853; assay type: cell-based; conditions: Pseudomonas aeruginosa, ATCC27853; Table S2
Description: as §1, §2

[13] = tested on: bloodstream form T. brucei (strain 221); assay: Anti-trypanosomal screening, resazurin; assay type: cell-based; conditions: Trypanosoma brucei, mean of triplicate ± SEM
Description: Bloodstream form T. brucei (strain 221) were cultured in modified Iscove’s medium, as outlined[67] and trypanocidal assays were performed using 96-well microtitre plates. […] Resazurin was added after 48 h, the plates incubated for a further 16 h, and then read in a Spectramax plate reader (Molecular Devices Corporation, San Jose, CA). The data were analysed using GraphPad Prism (GraphPad, La Jolla, CA). Each drug concentration was tested in triplicate.

[14] = tested on: ctDNA; assay: Thermal melting (ΔTm) of ctDNA; assay type: binding, calf; conditions: PBS, pH 7; for ΔTm, ctDNA, r = 0.3: r = [compound]/[polynucleotide] 0.3, error ±0.5 °C
Description: (§3) T m experiments were conducted with a Perkin Elmer Lambda 25 spectrophotometer in 1 cm quartz cuvettes. The absorbance of the DNA/RNA-compound complex was monitored at 260 nm as a function of temperature. The absorbance of the ligands was subtracted from every curve, and the absorbance scale was normalised. The ΔT m values were calculated by subtracting T m of the free nucleic acid from T m of the complex. Every reported ΔT m value was the average of at least two measurements. The error of ΔT m is ±0.5 °C. All data were graphed and analysed using Origin software version 9.0.
(§4) Denaturation experiments were carried out at different amounts of the compounds (r = 0.1, 0.3, 0.5, and 0.7 eq; r = [compound]/[polynucleotide]) with ctDNA and polyA-polyU.

[15] = tested on: polyC-polyG; assay: UV–Vis titration with polyC-polyG (Scatchard); assay type: binding; conditions: PBS, pH 7; for Hypochromic effect H/%, polyC-polyG: UV–Vis titration, calculated by Scatchard equation; for log Ks, polyC-polyG: binding constant, Scatchard
Description: (§5) Polynucleotides were purchased as follows: polyG–polyC, polyA–polyU (Sigma-Aldrich, St. Louis, MO), calf thymus ctDNA (Aldrich). Polynucleotides were dissolved in PBS buffer, I = 0.05 mol dm^−3, pH 7.0. The calf thymus ctDNA was additionally sonicated and filtered through a […] filter. The polynucleotide concentration was spectroscopically determined as the concentration of nucleobases.
(§6) All UV–Vis absorbance measurements were conducted on a Perkin Elmer Lambda 25 spectrophotometer (Perkin Elmer, Waltham, MA). A quartz cell with a 1 cm path length was used for all absorbance studies. Compound stock solutions were 1 mM. The DNA/RNA at increasing ratios was then titrated into the compound buffer solution (1.48 × 10^−5 mol dm^−3) and the corresponding absorption spectra were recorded under the same conditions. All data were graphed and analysed using Origin software version 9.0 (OriginLab Corporation, Northampton, MA). The stability constants (Ks) and [bound compound]/[polynucleotide phosphate] ratios (n) were calculated according to the Scatchard Equation[63] ^, [64]. Values for Ks and n given in Table 1 all have satisfying correlation coefficients (0.99).
(§7) The binding constants logKs and the density of the binding sites n were calculated using Scatchard plot analysis. In addition, the binding constants Ks for compounds 8b and 8e were calculated only for titration data taken at the r ≥ 0.1, because below that ratio changes in absorption maxima were too small for accurate calculation (ΔA ≤ 0.04) (Table 1). The binding constants Ks and ratios n obtained by processing UV–Vis titration data using the Scatchard equation are summarised in Table 1.

[16] = tested on: polyA-polyU; assay: Thermal melting (ΔTm) of polyA-polyU; assay type: binding; conditions: for ΔTm, polyA-polyU, r = 0.1: PBS, pH 7; for ΔTm, polyA-polyU, r = 0.3 / ΔTm, polyA-polyU, r = 0.5: first melting midpoint
Description: as §3, §4

[17] = tested on: polyA-polyU; assay: UV–Vis titration with polyA-polyU (Scatchard); assay type: binding; conditions: PBS, pH 7; for Hypochromic effect H/%, polyA-polyU: UV–Vis titration, calculated by Scatchard equation; for log Ks, polyA-polyU: binding constant, Scatchard
Description: as §5, §6, §7

[18] = tested on: calf thymus ctDNA; assay: UV–Vis titration with ctDNA (Scatchard); assay type: binding; conditions: for Hypochromic effect H/%, ctDNA: UV–Vis titration, calculated by Scatchard equation; for Hypochromic effect H/%, ctDNA / log Ks, ctDNA: PBS, pH 7; for log Ks, ctDNA: binding constant, Scatchard
Description: as §5, §6, §7

[19] = pH 7, changes too small for accurate calculation, compound 14.8 µM

SMILES | log Ks ([2]; pH 7, per base) | MIC [4] [µg/mL] | MIC [5] [µg/mL] | MIC [6] [µg/mL] | MIC [7] [µg/mL] | MIC [8] [µg/mL] | MIC [9] [µg/mL] | MIC [10] [µg/mL] | MIC [11] [µg/mL] | MIC [12] [µg/mL] | IC50 [13] [µM] | IC90 [13] [µM] | ΔTm, ctDNA, r = 0.5 [14] [°C] | ΔTm, ctDNA, r = 0.7 [14] [°C] | ΔTm, ctDNA, r = 0.3 [14] [°C] | log Ks, polyC-polyG [15] | ΔTm, polyA-polyU, r = 0.1 [16] [°C] | ΔTm, polyA-polyU, r = 0.3 [16] [°C] | ΔTm, polyA-polyU, r = 0.5 [16] [°C] | Hypochromic effect H/%, polyA-polyU [17] [%] | also measured
CC(C)NC(=N)c1ccc2nc(-c3ccc(OCc4cn(CSc5ccccc5)nn4)cc3)[nH]c2c1 | 5.96 | – | – | – | – | – | – | – | – | – | – | – | – | – | – | – | – | – | – | – | log Ks ([1]; pH 7, per base): 7.20; ΔTm ([3]; error ±0.5 (shift within error), per base): 0.23 °C
COc1ccc(-n2cc(COc3ccc(-c4nc5ccc(C(=N)N)cc5[nH]4)cc3)nn2)cc1 | – | – | – | – | – | – | – | – | – | – | – | – | – | – | – | – | – | – | – | – | log Ks ([1]; pH 7, per base): 6.27; binding [2, 19]: weak
COc1ccc(-n2cc(COc3ccc(-c4nc5ccc(C6=NCCN6)cc5[nH]4)cc3)nn2)cc1 | – | – | – | – | – | – | – | – | – | – | – | – | – | – | – | – | – | – | – | – | binding [1, 19]: weak; log Ks ([2]; pH 7, n fixed, per base): 5.46; ΔTm ([3]; error ±0.5, biphasic, second midpoint 36.08, per base): 2.67 °C
CC1(C)S[C@@H]2[C@H](NC(=O)[C@H](N)c3ccccc3)C(=O)N2[C@H]1C(=O)O [Ampicillin, ampicillin, reference compound] | – | 1 (≈ 2.86 µM) | 2 (≈ 5.72 µM) | 4 (≈ 11.4 µM) | 1 (≈ 2.86 µM) | 1 (≈ 2.86 µM) | – | – | – | – | – | – | – | – | – | – | – | – | – | – | –
O=C(O)c1cn(C2CC2)c2cc(N3CCNCC3)c(F)cc2c1=O [Ciprofloxacin, ciprofloxacin, reference compound] | – | – | – | – | – | – | 0.06 (≈ 0.181 µM) | 0.004 (≈ 0.0121 µM) | 0.06 (≈ 0.181 µM) | 0.5 (≈ 1.51 µM) | – | – | – | – | – | – | – | – | – | – | –
CC(C)NC(=N)c1ccc2[nH]c(-c3ccc(OCc4cn(-c5ccccc5)nn4)cc3)nc2c1 [Compound 8a] | 5.87 | 128 (≈ 283 µM) | 256 (≈ 567 µM) | 8 (≈ 17.7 µM) | 128 (≈ 283 µM) | 128 (≈ 283 µM) | > 256 | 256 (≈ 567 µM) | > 256 | > 256 | 7.1 ± 0.7 | 16.7 ± 1.2 | 3.94 | 4.25 | 3.35 | 6.17 | 0.32 | 0.64 | 1.11 | 46.5 | log Ks ([1]; pH 7, n fixed, per base): 6.17; Hypochromic effect H/%, polyC-polyG [15]: 5.86%; ΔTm ([3]; error ±0.5, per base): 0.64 °C; log Ks, polyA-polyU [17]: 5.87; Hypochromic effect H/%, ctDNA [18]: 41.0%; log Ks, ctDNA [18]: 6.17
CC(C)NC(=N)c1ccc2[nH]c(-c3ccc(OCc4cn(Cc5ccccc5)nn4)cc3)nc2c1 [Compound 8d] | 6.13 | 64 (≈ 137 µM) | 128 (≈ 275 µM) | 32 (≈ 68.7 µM) | 64 (≈ 137 µM) | 64 (≈ 137 µM) | > 256 | > 256 | > 256 | > 256 | 12.9 ± 0.2 | 21.6 ± 0.4 | 3.32 | 3.63 | 1.76 | 5.54 | 0.91 | 0.51 | 0.72 | 53.8 | log Ks ([1]; pH 7, n fixed, per base): 5.54; log Ks, polyA-polyU [17]: 6.13; Hypochromic effect H/%, ctDNA [18]: 41.2%; log Ks, ctDNA [18]: 5.93
CC(C)NC(=N)c1ccc2[nH]c(-c3ccc(OCc4cn(CSc5ccccc5)nn4)cc3)nc2c1.Cl.Cl [Compound 8e, N-isopropyl-2–(4-((1-(phenylthiomethyl)-1H-1,2,3-triazol-4-yl)methoxy)phenyl)-1H-benz[d]imidazole-5-carboximidamide dihydrochloride] | – | 64 | 256 | 8 | 64 | 64 | > 256 | 256 | > 256 | > 256 | 13.5 ± 0.8 | 22.5 ± 0.3 | 1.72 | 1.71 | 2.22 | 7.20 | 0.52 | 0.23 | 0.26 | 47.2 | Hypochromic effect H/%, polyC-polyG [15]: 5.96%; log Ks, polyA-polyU [17]: 5.96; melting point: 152 to 154 °C; Hypochromic effect H/%, ctDNA [18]: 44.2%; log Ks, ctDNA (range r ≥ 0.1) ([18]; footnote f: mixed binding mode, calculated in range r ≥ 0.1): 6.39
CNC(C)C1CCC(N)C(OC2C(N)CC(N)C(OC3OCC(C)(O)C(NC)C3O)C2O)O1 (stereo not drawn) [Gentamicin, gentamicin, reference compound] | – | 0.125 (≈ 0.262 µM) | 8 (≈ 16.8 µM) | 0.25 (≈ 0.523 µM) | 0.125 (≈ 0.262 µM) | 0.25 (≈ 0.523 µM) | – | – | – | – | – | – | – | – | – | – | – | – | – | – | –
